Reference: PMC12244496 (bioRxiv, 2025)
Where no end group is shown, it is not given here. [ ]: non-standard residue; d: D form. Lys(Me3) = C[N+](C)(C)CCCC[C@H](N)C(=O)O

Legend:
core PRC2 = core PRC2 (Homo sapiens, UniProt O75530+Q15910); test: PRC2-core activity assay; assay type: biochemical; conditions: 50 μM peptide; histone H3 peptide (residues 21–44) substrate
mESCs = test: Recovery of H3K27me1/2/3 in mESCs after tazemetostat treatment; assay type: cell-based, mouse; conditions: 10 μM for 7 days

Sequence of core PRC2 (Q15910 whole entry, the tested form may be a part): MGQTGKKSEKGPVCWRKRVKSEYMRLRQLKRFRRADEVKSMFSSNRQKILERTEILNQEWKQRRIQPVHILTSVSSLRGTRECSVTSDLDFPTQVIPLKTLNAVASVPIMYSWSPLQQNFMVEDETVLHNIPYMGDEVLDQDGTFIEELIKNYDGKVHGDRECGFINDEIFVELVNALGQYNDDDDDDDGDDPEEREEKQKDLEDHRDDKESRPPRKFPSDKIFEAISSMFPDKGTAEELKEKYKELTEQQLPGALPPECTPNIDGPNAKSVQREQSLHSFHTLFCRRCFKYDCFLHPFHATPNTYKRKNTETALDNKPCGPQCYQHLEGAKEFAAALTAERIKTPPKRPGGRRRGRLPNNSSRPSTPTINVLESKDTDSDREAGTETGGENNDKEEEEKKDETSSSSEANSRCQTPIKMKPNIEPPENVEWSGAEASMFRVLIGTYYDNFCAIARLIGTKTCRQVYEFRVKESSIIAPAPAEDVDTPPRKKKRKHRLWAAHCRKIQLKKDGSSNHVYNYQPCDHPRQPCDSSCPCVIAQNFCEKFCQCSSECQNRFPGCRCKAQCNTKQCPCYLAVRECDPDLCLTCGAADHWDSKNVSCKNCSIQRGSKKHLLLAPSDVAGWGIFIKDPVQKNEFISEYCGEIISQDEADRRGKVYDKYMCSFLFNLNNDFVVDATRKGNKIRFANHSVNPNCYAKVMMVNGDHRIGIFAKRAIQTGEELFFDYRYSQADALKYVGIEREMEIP
Sequence of core PRC2 (O75530 whole entry, the tested form may be a part): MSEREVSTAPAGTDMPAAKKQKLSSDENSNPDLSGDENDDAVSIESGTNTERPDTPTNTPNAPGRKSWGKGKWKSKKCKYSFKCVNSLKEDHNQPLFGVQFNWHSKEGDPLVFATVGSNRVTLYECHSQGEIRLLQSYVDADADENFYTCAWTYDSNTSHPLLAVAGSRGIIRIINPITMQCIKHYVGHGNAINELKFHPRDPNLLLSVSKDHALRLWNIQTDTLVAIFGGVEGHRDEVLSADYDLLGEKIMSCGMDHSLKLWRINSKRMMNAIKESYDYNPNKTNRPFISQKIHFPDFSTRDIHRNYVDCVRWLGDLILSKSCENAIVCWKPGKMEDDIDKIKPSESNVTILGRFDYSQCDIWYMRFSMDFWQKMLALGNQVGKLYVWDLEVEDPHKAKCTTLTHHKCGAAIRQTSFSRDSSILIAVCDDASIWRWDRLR
Sequence of core PRC2 (Q15022 whole entry partner, the tested form may be a part): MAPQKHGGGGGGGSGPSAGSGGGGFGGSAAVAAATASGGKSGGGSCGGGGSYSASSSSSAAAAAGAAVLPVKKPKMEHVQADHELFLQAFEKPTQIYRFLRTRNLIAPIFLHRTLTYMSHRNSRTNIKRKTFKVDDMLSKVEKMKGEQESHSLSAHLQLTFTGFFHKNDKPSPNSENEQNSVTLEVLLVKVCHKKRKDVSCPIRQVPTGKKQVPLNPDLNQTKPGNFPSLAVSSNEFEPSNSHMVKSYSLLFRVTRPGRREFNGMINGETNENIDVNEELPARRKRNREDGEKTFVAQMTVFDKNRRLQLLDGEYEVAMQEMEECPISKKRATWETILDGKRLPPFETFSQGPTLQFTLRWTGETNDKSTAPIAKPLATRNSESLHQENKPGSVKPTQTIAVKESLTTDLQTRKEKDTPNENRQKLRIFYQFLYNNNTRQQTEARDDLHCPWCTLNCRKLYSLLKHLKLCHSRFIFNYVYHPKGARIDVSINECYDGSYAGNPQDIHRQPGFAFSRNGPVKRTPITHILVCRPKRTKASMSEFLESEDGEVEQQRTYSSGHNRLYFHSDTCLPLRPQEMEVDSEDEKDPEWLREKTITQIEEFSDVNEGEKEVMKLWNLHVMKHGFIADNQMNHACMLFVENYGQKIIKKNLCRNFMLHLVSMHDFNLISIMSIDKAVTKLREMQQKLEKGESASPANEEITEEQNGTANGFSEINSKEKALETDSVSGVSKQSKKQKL
Sequence of core PRC2 (Q09028 whole entry partner, the tested form may be a part): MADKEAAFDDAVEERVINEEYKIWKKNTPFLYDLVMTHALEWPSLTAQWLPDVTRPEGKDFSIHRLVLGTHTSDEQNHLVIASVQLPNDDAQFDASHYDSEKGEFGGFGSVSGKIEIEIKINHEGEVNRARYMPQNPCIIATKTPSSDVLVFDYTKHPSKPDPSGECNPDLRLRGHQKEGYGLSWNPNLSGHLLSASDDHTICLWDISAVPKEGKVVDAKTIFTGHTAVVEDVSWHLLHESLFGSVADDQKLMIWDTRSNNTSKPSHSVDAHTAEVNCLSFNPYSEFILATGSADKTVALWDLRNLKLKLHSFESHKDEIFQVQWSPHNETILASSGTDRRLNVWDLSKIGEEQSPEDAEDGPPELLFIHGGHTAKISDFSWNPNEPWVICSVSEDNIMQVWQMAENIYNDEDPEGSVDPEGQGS

PRC2 activity (%) (core PRC2)	Molecule	depletion of H3K27me1/2/3 (mESCs)
583±28	KAAR[Lys(Me3)]SAPA [compound 2]	–
–	CCN(c1cc(-c2ccc(CN3CCOCC3)cc2)cc(C(=O)NCc2c(C)cc(C)[nH]c2=O)c1C)C1CCOCC1 [tazemostat, tazemetostat]	completely depleted
485±93	TKAAR[Lys(Me3)]SA [compound 4]	–
